The source made the active and inactive calls. The rule behind the calls is not given here.
Experiments:
Format in all cases: functional
MDA-MB-231 = experiment: Cytotoxicity against human MDA-MB-231 cells SRB assay
HT-29 = experiment: Cytotoxicity against human HT-29 cells SRB assay
A549 = experiment: Cytotoxicity against human A549 cells SRB assay

Compound | Activity (MDA-MB-231) | Activity (HT-29) | Activity (A549) | GI50 (MDA-MB-231) [µM] | GI50 (HT-29) [µM] | GI50 (A549) [µM]
CC[C@@]1(/C=C/c2ccccc2)C=C(C)[C@H]2[C@@H]([C@@H](C)C(=O)[C@@H]2C)[C@]1(CC)C(=O)O | inactive | inactive | inactive |  |  | 
CCC1=C[C@](/C=C/c2ccccc2)(CC)[C@@](CC)(C(=O)O)[C@H]2[C@H]1[C@@H](CC)C(=O)[C@@H]2C [ISOSPICULOIC ACID A] |  |  |  | > 25 | 15 | 15
CCC1=C[C@](/C=C/c2ccccc2)(CC)[C@@](CC)(C(=O)O)[C@H]2[C@H]1[C@@H](C)C(=O)[C@@H]2C [NOR-SPICULOIC ACID A] |  |  |  | > 25 | 15 | 15

From ChEMBL document CHEMBL1158733, “Iso-, nor-, and dinor-spiculoic acids A, polyketides from the marine sponge Plakortis zyggompha” (2005)
